Experiments:
Type in all cases: in vivo
[1] = test system: Aster Leafhopper [Macrosteles fascifrens (Stal)]; assay: Aster leafhopper test (LH); settings: adults/nymphs, 48 hours, percent in solution
[2] = test system: Tobacco Budworm [Heliothis virescens (Fabricius)]; assay: Tobacco budworm contact test (TBW-C); settings: second-instar larvae, 5 days, percent in solution
Method: (§1) The compounds in Tables 1 and 2 above were tested for insecticidal activity using the following testing procedures. LC50 values, based on the results of these tests and calculated according to dosage-mortality curves, are expressed in Table 3.
Tobacco Budworm [Heliothis virescens (Fabricius)]
(a) Contact: Test compounds were diluted in a 50-50 acetonewater solution. Cotton (Gossypium sp.) cotyledons were immersed in the test solutions for 2-3 seconds and placed on a wire screen to dry. The dried leaves were placed in petri dishes containing a moistened piece of filter paper and infested with 5 second-instar tobacco budworm larvae. The dishes were placed in a high humidity chamber for 5 days, and percent mortality of the larvae recorded. Test concentrations ranged from 0.1% downward. The LC-50 values are expressed below in Table 3 under the heading "TBW-C" in terms of percent of the test compound in the solution.

[3] = test system: Housefly [Musca domestica]; assay: Housefly insecticidal test (HF); settings: per 25 female houseflies, 48 hours
[4] = test system: Tobacco Budworm [Heliothis virescens (Fabricius)] eggs; assay: Tobacco budworm egg test (TBW-E); settings: percent in solution
[5] = test system: Cabbage Looper [Trichoplusia ni (Hubner)]; assay: Cabbage looper test (CL); settings: second-instar larvae, 3-5 days, percent in solution
[6] = test system: Beet Armyworm (Spodoptera exigua); assay: Beet armyworm test (BAW)
Method: as §1
Beet Armyworm (Spodoptera exigua)
Test compounds were diluted in a 50-50 acetone-water solution. Young leaves of sugar beets (Beta vulgaris) were immersed in the test solutions for 2-3 seconds and placed on a wire screen to dry. The dried leaves were placed in petri dishes containing a moistened filter paper and infested with five second-instar beet armyworm larvae. The dishes were placed in a high humidity chamber. Mortality of the larvae was recorded five days later. Test concentrations ranged from 0.1% downward. The LC-50 values are expressed below in Table 3 under the heading "BAW" in terms of percent of the test compound in solution.

[7] = test system: Maize weevil [Sitophilus Zeamais (Motschulsky)]; assay: Maize weevil test (MW); settings: adult weevils, treated corn seeds, 48 hours, percent in solution
Procedure, shortened: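 Adult weevils (10) were placed with four corn seeds that had been dipped 2-3 s in compound dissolved in 50:50 acetone:water, then dried, and held at about 25° C. Mortality was scored at 48 h. LC50 was taken from dosage-mortality curves and expressed as percent compound in solution, from a 0.01% top concentration.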

[8] = second-instar larvae, five days, percent in solution

Row | Compound | LC50 LH [1] [%] | LC50 TBW C [2] [%] | LC50 HF [3] [µg] | LC50 TBW E [4] [%] | LC50 CL [5] [%] | LC50 BAW [6, 8] [%] | LC50 MW [7] [%] | LC50 BAW ([6]; 120 h) [%]
1 | CC(C)C(=Nc1cccc(C(F)(F)F)c1)OCc1ccc(F)c(Oc2ccccc2)c1 [Compound 80] | 0.0001 | 0.00075 | 4.5 | 0.005 | 0.0003 | 0.0018 |  | 
2 | CC(C)C(=Nc1cccc(I)c1)OCc1ccc(F)c(Oc2ccc(F)cc2)c1 [Compound 279] | 0.0003 | 0.007 | 4 | 0.016 | 0.00008 | 0.0025 | > 0.01 | 
3 | CC(C)C(=Nc1ccc(F)c(F)c1F)OCc1cccc(Oc2ccc(F)cc2)c1 [Compound 348] | 0.05 | 0.00075 | 8 | > 0.1 | 0.0002 | > 0.1 | > 0.01 | 
4 | CC(C)C(=Nc1cccc(Cl)c1)OCc1cccc(Oc2ccc(Cl)cc2)c1 [Compound 270] | 0.003 | > 0.0015 | 12 | > 0.01 | 0.00025 | 0.005 | > 0.01 | 
5 | Clc1ccc(N=C(OCc2cccc(Oc3ccccc3)c2)C2CC2)cc1 [Compound 32] | > 0.05 | 0.006 | 37 | 0.1 | 0.003 |  | > 0.01 | 0.03
6 | CC(C)C(=Nc1ccc(F)c(Cl)c1)OCc1cc(Oc2ccc(F)cc2)c(F)cc1F [Compound 343] |  | 0.00025 | 40 | > 0.1 | 0.00027 | > 0.1 | > 0.01 | 
7 | CC(C)C(=Nc1ccc(I)cc1)OCc1ccc(F)c(Oc2ccc(F)cc2)c1 [Compound 335] |  | 0.00025 | 34 | 0.05 | 0.00027 | > 0.1 | > 0.01 | 
8 | CC(C)C(=Nc1ccc(OC(F)(F)F)cc1)OCc1ccc(F)c(Oc2ccc(F)c(F)c2)c1 [Compound 347] | 0.0002 | 0.0001 | 30 | > 0.1 | 0.000075 | 0.00075 | > 0.01 | 
9 | CC1(C(=Nc2ccc(Cl)cc2)OCc2cccc(Oc3ccccc3)c2)CC1 [Compound 5] | > 0.05 | 0.008 | 21 | 0.05 | 0.005 | 0.025 | > 0.01 | 
10 | CC(C)C(=Nc1ccc(Cl)c(C(F)(F)F)c1)OCc1cccc(Oc2ccccc2)c1 [Compound 71] | 0.002 | 0.0008 | 50 | 0.065 | 0.0006 | 0.0004 |  | 
11 | CC(C)C(=Nc1cccc(F)c1)OCc1cccc(Oc2ccccc2)c1 [Compound 47] | 0.0003 | 0.002 | 10 | 0.06 | 0.002 | 0.002 |  | 
12 | CC(C)C(=Nc1ccc2c(c1)OC(F)(F)O2)OCc1ccc(F)c(Oc2ccc(F)cc2)c1 [Compound 284] | 0.0003 | 0.0002 | 39 |  | 0.00005 | 0.0025 | 0.0075 | 
13 | CC(C)C(=Nc1cc(F)cc(C(F)(F)F)c1)OCc1cccc(Oc2ccccc2)c1 [Compound 77] | 0.0002 | 0.0004 | 10 | 0.03 | 0.0005 |  | > 0.01 | 0.0004
14 | FC(F)(F)Oc1ccc(N=C(OCc2cccc(Oc3ccccc3)c2)C2CC2)cc1 [Compound 63] | 0.0001 | 0.001 | 30 | 0.05 | 0.005 |  | > 0.01 | 0.005
15 | Clc1cccc(N=C(OCc2cccc(Oc3ccccc3)c2)C(Cl)Cl)c1 [Compound 1] | > 0.05 | 0.06 | 4.8 | 0.05 | 0.005 | 0.009 | > 0.01 | 
16 | CC(=Nc1ccccc1)OCc1cccc(Oc2ccccc2)c1 [Compound 42] | > 0.05 | > 0.1 | 45 | > 0.1 | > 0.1 | > 0.1 | > 0.01 | 
17 | Clc1ccc(N=C(OCc2cccc(Oc3ccccc3)c2)C(Cl)Cl)cc1 [Compound 29] | 0.003 | 0.001 | 5 | 0.01 | 0.002 | 0.003 | > 0.01 | 
18 | Clc1ccc(N=C(OCc2cccc(Oc3ccccc3)c2)C(Cl)Cl)c(Cl)c1 [Compound 4] | > 0.05 | 0.05 | 100 | > 0.1 | 0.007 | 0.04 |  | 
19 | FC(F)(F)c1ccc(N=C(OCc2cccc(Oc3ccccc3)c2)C2CC2)c(Cl)c1 [Compound 65] | > 0.05 | 0.1 | > 100 | > 0.1 | < 0.01 |  |  | > 0.1
20 | CC(C)C(=Nc1ccc2c(c1)OC(C)(C)O2)OCc1ccc(F)c(Oc2ccc(F)cc2)c1 [Compound 283] |  | 0.0009 | 23 | 0.016 | 0.00009 | 0.0013 | > 0.01 | 
21 | CC(C)C(=Nc1ccc(F)cc1F)OCc1cccc(Oc2ccccc2)c1 [Compound 52] | 0.001 | 0.004 | 8 | > 0.05 | 0.0025 | 0.01 |  | 
22 | CC(C)C(=Nc1ccc(Cl)cc1)OCc1cccc(Oc2ccccc2)c1 [Compound 2] | 0.0003 | 0.0009 | 4.5 | 0.04 | 0.006 | 0.01 |  | 
23 | CC(C)C(=Nc1ccc(F)c(F)c1)OCc1cccc(Oc2ccccc2)c1 [Compound 54] | 0.00015 | 0.001 | 3.5 | 0.017 | 0.0003 | 0.004 |  | 
24 | CC(C)C(=Nc1ccc(Br)c(F)c1)OCc1ccc(F)c(Oc2ccc(F)cc2)c1 [Compound 282] |  | 0.0007 | 16 | 0.02 | 0.00007 | 0.0025 | 0.008 | 
25 | CC(C)C(=Nc1ccc(F)c(Cl)c1)OCc1ccc(F)c(Oc2ccc(F)c(F)c2)c1 [Compound 346] | 0.05 | 0.0002 | 7.2 | > 0.1 | > 0.1 | > 0.1 |  | 
26 | Fc1ccc(N=C(OCc2cccc(Oc3ccccc3)c2)C2CC2)cc1 [Compound 45] | > 0.05 | 0.01 | 30 | 0.08 | 0.03 |  |  | 0.1
27 | CC(C)C(=Nc1ccc(F)cc1)OCc1ccc(F)c(Oc2ccccc2)c1 [Compound 53] |  | 0.0025 | 2 | 0.02 | 0.0005 | 0.003 |  | 
28 | CC(C)C(=Nc1ccc2c(c1)OC(F)(F)O2)OCc1cccc(Oc2ccc(Cl)cc2)c1 [Compound 450] |  | 0.0001 | 72 | 0.015 | 0.00016 | 0.005 | 0.01 | 
29 | CC(C)C(=Nc1ccc(Br)cc1)OCc1ccc(F)c(Oc2ccc(F)cc2)c1 [Compound 333] |  | 0.00075 | 15 | 0.025 | 0.00024 | > 0.1 | > 0.01 | 
